Results as given in PubChem BioAssay (NCI).
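Cultured in 96-well plates, cells were exposed to test compound for 48 hours across five concentrations. Here, GI50 denotes the concentration required for 50% inhibition of growth. TGI: total growth inhibition.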

Legend:
Experiment in all cases: DTP human tumour cell line panel, 48 h
786-0 renal = system: 786-0 renal
A498 renal = system: A498 renal
A549 NSCLC = system: A549 NSCLC
ACHN renal = system: ACHN renal
BT-549 breast = system: BT-549 breast
CAKI-1 renal = system: CAKI-1 renal
CCRF-CEM leukemia = system: CCRF-CEM leukemia
COLO 205 colon = system: COLO 205 colon
DU-145 prostate = system: DU-145 prostate
EKVX NSCLC = system: EKVX NSCLC
HCC-2998 colon = system: HCC-2998 colon
HCT-116 colon = system: HCT-116 colon
HCT-15 colon = system: HCT-15 colon
HL-60(TB) leukemia = system: HL-60(TB) leukemia
HOP-62 NSCLC = system: HOP-62 NSCLC
HOP-92 NSCLC = system: HOP-92 NSCLC
HS 578T breast = system: HS 578T breast
HT29 colon = system: HT29 colon
IGROV1 ovarian = system: IGROV1 ovarian
K-562 leukemia = system: K-562 leukemia
KM12 colon = system: KM12 colon
LOX IMVI melanoma = system: LOX IMVI melanoma
M14 melanoma = system: M14 melanoma
MALME-3M melanoma = system: MALME-3M melanoma
MCF7 breast = system: MCF7 breast
MDA-MB-231 breast = system: MDA-MB-231 breast
MDA-MB-435 = system: MDA-MB-435
MOLT-4 leukemia = system: MOLT-4 leukemia
NCI-H226 lung = system: NCI-H226 lung
NCI-H23 lung = system: NCI-H23 lung
NCI-H460 lung = system: NCI-H460 lung
NCI-H522 lung = system: NCI-H522 lung
NCI/ADR-RES ovarian = system: NCI/ADR-RES ovarian
OVCAR-3 ovarian = system: OVCAR-3 ovarian
OVCAR-4 ovarian = system: OVCAR-4 ovarian
OVCAR-5 ovarian = system: OVCAR-5 ovarian
OVCAR-8 ovarian = system: OVCAR-8 ovarian
PC-3 prostate = system: PC-3 prostate
RPMI-8226 leukemia = system: RPMI-8226 leukemia
RXF 393 renal = system: RXF 393 renal
SF-268 CNS = system: SF-268 CNS
SF-295 CNS = system: SF-295 CNS
SF-539 CNS = system: SF-539 CNS
SK-MEL-2 melanoma = system: SK-MEL-2 melanoma
SK-MEL-28 melanoma = system: SK-MEL-28 melanoma
SK-MEL-5 melanoma = system: SK-MEL-5 melanoma
SK-OV-3 ovarian = system: SK-OV-3 ovarian
SN12C renal = system: SN12C renal
SNB-19 CNS = system: SNB-19 CNS
SNB-75 CNS = system: SNB-75 CNS
SR leukemia = system: SR leukemia
SW-620 colon = system: SW-620 colon
T-47D breast = system: T-47D breast
TK-10 renal = system: TK-10 renal
U251 CNS = system: U251 CNS
UACC-257 melanoma = system: UACC-257 melanoma
UACC-62 melanoma = system: UACC-62 melanoma
UO-31 renal = system: UO-31 renal

`Clc1ccc(/C=C2\CCCC3C2=Nc2ccccc2NC3c2ccc(Cl)cc2)cc1` (stereo unspecified) was tested, and the GI50 (786-0 renal) was 3.48 µM, the TGI (786-0 renal) was 16.2 µM and the GI50 (A498 renal) was 2.15 µM. It also gave a TGI (A498 renal) of 5.79 µM, a GI50 (A549 NSCLC) of 2.88 µM and a TGI (A549 NSCLC) of 9.11 µM. The GI50 (ACHN renal) was 4.42 µM, the TGI (ACHN renal) was > 25.4 µM and the GI50 (BT-549 breast) was 2.24 µM. For the same molecule, the TGI (BT-549 breast) was 6.81 µM, the GI50 (CAKI-1 renal) was 3.95 µM and the TGI (CAKI-1 renal) was 69.9 µM. For the same molecule, the GI50 (CCRF-CEM leukemia) was 3.18 µM, the TGI (CCRF-CEM leukemia) was > 35.9 µM and the GI50 (COLO 205 colon) was 3.11 µM. The TGI (COLO 205 colon) was 8.2 µM, the GI50 (DU-145 prostate) was 4.39 µM and the TGI (DU-145 prostate) was 23.9 µM. It also gave a GI50 (EKVX NSCLC) of 4.07 µM, a TGI (EKVX NSCLC) of 52.5 µM and a GI50 (HCC-2998 colon) of 1.92 µM. The TGI (HCC-2998 colon) was 3.55 µM, the GI50 (HCT-116 colon) was 1.59 µM and the TGI (HCT-116 colon) was 3.02 µM. It also gave a GI50 (HCT-15 colon) of 2.59 µM, a TGI (HCT-15 colon) of 7.47 µM and a GI50 (HL-60(TB) leukemia) of 4.85 µM. It also gave a TGI (HL-60(TB) leukemia) of 33 µM, a GI50 (HOP-62 NSCLC) of 3.86 µM and a TGI (HOP-62 NSCLC) of 22.1 µM. It also gave a GI50 (HOP-92 NSCLC) of 7.99 µM, a TGI (HOP-92 NSCLC) of 37.9 µM and a GI50 (HS 578T breast) of 4.04 µM. The TGI (HS 578T breast) was > 27.7 µM, the GI50 (HT29 colon) was 2.79 µM and the TGI (HT29 colon) was 7.95 µM. The GI50 (IGROV1 ovarian) was 3.3 µM, the TGI (IGROV1 ovarian) was 10.2 µM and the GI50 (K-562 leukemia) was 3.91 µM. The TGI (K-562 leukemia) was 27.8 µM, the GI50 (KM12 colon) was 2.02 µM and the TGI (KM12 colon) was 3.99 µM. It also gave a GI50 (LOX IMVI melanoma) of 1.74 µM, a TGI (LOX IMVI melanoma) of 3.18 µM and a GI50 (M14 melanoma) of 2.07 µM. The TGI (M14 melanoma) was 5.19 µM, the GI50 (MALME-3M melanoma) was 16.8 µM and the TGI (MALME-3M melanoma) was 49.2 µM. For the same molecule, the GI50 (MCF7 breast) was 2.92 µM, the TGI (MCF7 breast) was > 34 µM and the GI50 (MDA-MB-231 breast) was 6.99 µM. For the same molecule, the TGI (MDA-MB-231 breast) was 41.7 µM, the GI50 (MDA-MB-435) was 2.87 µM and the TGI (MDA-MB-435) was > 27.6 µM. It also gave a GI50 (MOLT-4 leukemia) of 4.52 µM, a TGI (MOLT-4 leukemia) of 30.4 µM and a GI50 (NCI-H226 lung) of 1.91 µM. For the same molecule, the TGI (NCI-H226 lung) was 4.19 µM, the GI50 (NCI-H23 lung) was 3.43 µM and the TGI (NCI-H23 lung) was 15.7 µM. It also gave a GI50 (NCI-H460 lung) of 4.47 µM, a TGI (NCI-H460 lung) of 16.4 µM and a GI50 (NCI-H522 lung) of 11.6 µM. For the same molecule, the TGI (NCI-H522 lung) was 28.5 µM, the GI50 (NCI/ADR-RES ovarian) was 4.66 µM and the TGI (NCI/ADR-RES ovarian) was 52.3 µM. For the same molecule, the GI50 (OVCAR-3 ovarian) was 3.13 µM, the TGI (OVCAR-3 ovarian) was 9.12 µM and the GI50 (OVCAR-4 ovarian) was 3.77 µM. For the same molecule, the TGI (OVCAR-4 ovarian) was > 52.7 µM, the GI50 (OVCAR-5 ovarian) was 8.63 µM and the TGI (OVCAR-5 ovarian) was 22.3 µM. It also gave a GI50 (OVCAR-8 ovarian) of 2.75 µM, a TGI (OVCAR-8 ovarian) of 8.31 µM and a GI50 (PC-3 prostate) of 4.45 µM. For the same molecule, the TGI (PC-3 prostate) was > 41.5 µM, the GI50 (RPMI-8226 leukemia) was 1.85 µM and the TGI (RPMI-8226 leukemia) was 5.13 µM. It also gave a GI50 (RXF 393 renal) of 1.81 µM, a TGI (RXF 393 renal) of 3.47 µM and a GI50 (SF-268 CNS) of 4.05 µM. For the same molecule, the TGI (SF-268 CNS) was > 77.7 µM, the GI50 (SF-295 CNS) was 2.71 µM and the TGI (SF-295 CNS) was 8.46 µM. The GI50 (SF-539 CNS) was 4.75 µM, the TGI (SF-539 CNS) was 47.4 µM and the GI50 (SK-MEL-2 melanoma) was 31.3 µM. For the same molecule, the TGI (SK-MEL-2 melanoma) was > 64.8 µM, the GI50 (SK-MEL-28 melanoma) was 7.15 µM and the TGI (SK-MEL-28 melanoma) was 28.4 µM. The GI50 (SK-MEL-5 melanoma) was 2.91 µM, the TGI (SK-MEL-5 melanoma) was 7.19 µM and the GI50 (SK-OV-3 ovarian) was 7.49 µM. The TGI (SK-OV-3 ovarian) was > 100 µM, the GI50 (SN12C renal) was 6.81 µM and the TGI (SN12C renal) was 34.2 µM. The GI50 (SNB-19 CNS) was 7.01 µM, the TGI (SNB-19 CNS) was > 100 µM and the GI50 (SNB-75 CNS) was 12.3 µM. The TGI (SNB-75 CNS) was 57.5 µM, the GI50 (SR leukemia) was 2.6 µM and the TGI (SR leukemia) was 6.64 µM. The GI50 (SW-620 colon) was 2.96 µM, the TGI (SW-620 colon) was 10.6 µM and the GI50 (T-47D breast) was 6.27 µM. The TGI (T-47D breast) was > 87.9 µM, the GI50 (TK-10 renal) was 11 µM and the TGI (TK-10 renal) was > 58.5 µM. It also gave a GI50 (U251 CNS) of 2.05 µM, a TGI (U251 CNS) of 4.71 µM and a GI50 (UACC-257 melanoma) of 2.14 µM. It also gave a TGI (UACC-257 melanoma) of 5.88 µM, a GI50 (UACC-62 melanoma) of 6.7 µM and a TGI (UACC-62 melanoma) of 25.4 µM. The GI50 (UO-31 renal) was 3.15 µM and the TGI (UO-31 renal) was 12.5 µM.
